From the C3SDB collision cross section collection
Values joined by “and” are separate entries in the source; they are usually repeats but may differ in a detail not shown here. Equal values may be shown once.

Legend:
[1] = instrument: DT, single field, calibrated with Agilent tune mix (Agilent)
[2] = instrument: DT, stepped-field

CCCCCCCCC/C=C\CCCCCCCC(=O)O[C@H](COC(=O)CCCCCCCCCCCC)COP(=O)(O)OCCN [PE(32:1)]
collision cross section (N2) ([1]; [M+H]+): 267.2 Å² | collision cross section (N2) ([1]; [M+Na]+): 272 Å² | collision cross section (N2) ([1]; [M-H]-): 256.6 Å² | collision cross section (N2) ([2]; [M+Na]+): 274.1 Å²

OC[C@H]1O[C@@H]2O[C@H]3[C@H](O)[C@@H](O)[C@@H](O[C@H]4[C@H](O)[C@@H](O)[C@@H](O[C@H]5[C@H](O)[C@@H](O)[C@@H](O[C@H]6[C@H](O)[C@@H](O)[C@@H](O[C@H]7[C@H](O)[C@@H](O)[C@@H](O[C@H]8[C@H](O)[C@@H](O)[C@@H](O[C@H]1[C@H](O)[C@H]2O)O[C@@H]8CO)O[C@@H]7CO)O[C@@H]6CO)O[C@@H]5CO)O[C@@H]4CO)O[C@@H]3CO [Beta-Cyclodextrin]
collision cross section (N2) ([2]; [M+H]+): 301.3 Å² and 319.6 Å² | collision cross section (N2) ([2]; [M+K]+): 320.3 Å² | collision cross section (N2) ([2]; [M+Na]+): 319.7 Å²

OC[C@@H](O)[C@@H](O)[C@H](O)[C@@H](O)CO [Sorbitol]
collision cross section (N2) ([2]; [M+Na]+): 139.4 Å²

NCCCC[C@H](NC(=O)[C@H](CC(N)=O)NC(=O)[C@H](CCC(=O)O)NC(=O)[C@@H](N)CCC(N)=O)C(=O)O [QENK]
collision cross section (N2) ([2]; [M+H]+): 219 Å²

OC[C@H]1O[C@H](O[C@H]2[C@H](O)[C@@H](O)[C@@H](O[C@H]3[C@H](O)[C@@H](O)[C@@H](O)O[C@@H]3CO)O[C@@H]2CO)[C@H](O)[C@@H](O)[C@@H]1O [Maltotriose]
collision cross section (N2) ([2]; [M+H]+): 216.3 Å² | collision cross section (N2) ([2]; [M+K]+): 216.8 Å² | collision cross section (N2) ([2]; [M+Na]+): 212.8 Å²

CC(C)[C@H](NC(=O)[C@@H](N)Cc1ccc(O)cc1)C(=O)N[C@@H](CCCNC(=N)N)C(=O)O [YVR]
collision cross section (N2) ([2]; [M+H]+): 207 Å²

CSCC[C@H](NC(=O)[C@H](C)N)C(=O)NCC(=O)N[C@@H](Cc1ccc(O)cc1)C(=O)N[C@@H](CCCNC(=N)N)C(=O)O [AMGYR]
collision cross section (N2) ([2]; [M+H]+): 245 Å²

CC/C=C\C/C=C\C/C=C\C/C=C\C/C=C\C/C=C\CCC(=O)OC[C@H](COP(=O)(O)OC[C@H](N)C(=O)O)OC(=O)CCC/C=C\C/C=C\C/C=C\C/C=C\C/C=C\CC [PS(42:11)]
collision cross section (N2) ([2]; [M+Na]+): 294.2 Å²

CCC(C)[C@H](NC(=O)[C@H](CCC(=O)O)NC(=O)[C@H](Cc1ccc(O)cc1)NC(=O)[C@H](CC(C)C)NC(=O)[C@@H](N)Cc1ccc(O)cc1)C(=O)N[C@@H](C)C(=O)N[C@@H](CCCNC(=N)N)C(=O)O (some centres undefined) [YLYEIAR]
collision cross section (N2) ([2]; [M+H]+): 305 Å²

CCCCC/C=C\C/C=C\CCCCCCCC(=O)O[C@H](COCCCCCCCCCCCCCCCCCC)COP(=O)(O)OCCN [PE(o36:2)]
collision cross section (N2) ([2]; [M+Na]+): 287.3 Å²

CCCCC/C=C\C/C=C\C/C=C\C/C=C\CCCCCC(=O)OC[C@H](COP(=O)(O)OC[C@H](N)C(=O)O)OC(=O)CCC/C=C\C/C=C\C/C=C\C/C=C\CCCCC [PS(42:8)]
collision cross section (N2) ([2]; [M+Na]+): 301.3 Å²

CCCCC[N+](CCCCC)(CCCCC)CCCCC [TAA5]
collision cross section (N2) ([2]; [M]+): 190.1 Å²

CC/C=C\C/C=C\C/C=C\C/C=C\C/C=C\C/C=C\CCC(=O)O[C@H](COC(=O)CCC/C=C\C/C=C\C/C=C\C/C=C\CCCCC)COP(=O)(O)OC[C@H](N)C(=O)O [PS(42:10)]
collision cross section (N2) ([2]; [M+Na]+): 297.1 Å²

CCC(C)[C@H](NC(=O)[C@H](CCC(N)=O)NC(=O)CN)C(=O)N[C@H](C(=O)NCC(=O)N[C@@H](CCCNC(=N)N)C(=O)O)C(C)C (some centres undefined) [GQIVGR]
collision cross section (N2) ([2]; [M+H]+): 245.5 Å²

CCCCC/C=C\C/C=C\C/C=C\CCCCC(=O)OC[C@H](COP(=O)(O)OCCN)OC(=O)CCCCCCC/C=C\CCCCCCCCC [PE(37:4)]
collision cross section (N2) ([2]; [M+K]+): 284.7 Å²

C[C@H](N)C(=O)N[C@@H](Cc1ccccc1)C(=O)N[C@@H](CC(=O)O)C(=O)N[C@@H](CCC(=O)O)C(=O)N[C@@H](CCCCN)C(=O)O [AFDEK]
collision cross section (N2) ([2]; [M+H]+): 238.3 Å²

CCCCCCCCCCCCC=CC[C@@H](O)[C@H](CO[C@@H]1O[C@H](CO)[C@@H](O)C(O)C1O)NC(=O)CCCCCCCCCCCCCCC (some centres undefined) [GlcCer(34:1)]
collision cross section (N2) ([2]; [M+Na]+): 277.3 Å²

CCC(C)[C@H](NC(=O)CNC(=O)[C@H](CC(C)C)NC(=O)[C@@H](N)C(C)C)C(=O)N[C@@H](CC(=O)O)C(=O)NCC(=O)NCC(=O)N[C@@H](CCC(=O)O)C(=O)NCC(=O)N[C@@H](CCCCN)C(=O)O (some centres undefined) [VLGIDGGEGK]
collision cross section (N2) ([2]; [M+H]+): 291.2 Å²

CCCCC=CCC=CCC=CCC(=O)OC[C@H](COP(=O)(O)OCCN)OC(=O)CC=CCC=CCC=CCCCC [PE(28:6)]
collision cross section (N2) ([2]; [M+K]+): 248.7 Å²

CCCCCCCCCCCCCCCCCCCCCC(=O)N[C@@H](CO[C@@H]1O[C@H](CO)[C@@H](O)C(O)C1O)[C@H](O)CCCCCCCCCCCCCCC (some centres undefined) [GlcCer(40:0)]
collision cross section (N2) ([2]; [M+Na]+): 302.3 Å²

CCCC[N+](CCCC)(CCCC)CCCC [TAA4]
collision cross section (N2) ([2]; [M]+): 166.6 Å²

CC/C=C\C/C=C\C/C=C\C/C=C\CCCCC(=O)OC[C@H](COP(=O)(O)OC[C@H](N)C(=O)O)OC(=O)CCCCC/C=C\C/C=C\C/C=C\C/C=C\CCCCC [PS(40:8)]
collision cross section (N2) ([2]; [M+Na]+): 293.6 Å²

CCCCCCCCCCCCCCCCCCCCCC(=O)N[C@@H](COP(=O)([O-])OCC[N+](C)(C)C)[C@H](O)CCCCCCCCCCCCCCC [SM(40:0)]
collision cross section (N2) ([2]; [M+Na]+): 305.7 Å²

CCC=CCC=CCC=CCC=CCC=CCC=CCC(=O)OC[C@H](COP(=O)(O)OCC[N+](C)(C)C)OC(=O)CC=CCC=CCC=CCC=CCC=CCC=CCC [PC(42:12)]
collision cross section (N2) ([2]; [M+Na]+): 303.9 Å²

CC(=O)NC1C(O)OC(CO)C(O)C1OC1OC(CO)C(O)C(O)C1O (centres undefined) [HexNAc-Hex]
collision cross section (N2) ([2]; [M+K]+): 191.1 Å² | collision cross section (N2) ([2]; [M+Na-H2O]+): 184.3 Å² | collision cross section (N2) ([2]; [M+Na]+): 190.2 Å²

CSCC[C@H](NC(=O)[C@@H](N)Cc1c[nH]c2ccccc12)C(=O)NCC(=O)N[C@@H](CCCCN)C(=O)O [WMGK]
collision cross section (N2) ([2]; [M+H]+): 220.1 Å²

N=C(N)NCCC[C@H](NC(=O)[C@H](CCC(=O)O)NC(=O)CNC(=O)[C@@H](N)Cc1ccccc1)C(=O)O [FGER]
collision cross section (N2) ([2]; [M+H]+): 217.1 Å²

CCCCCCCCCCCCC=CC[C@@H](O)[C@H](COP(=O)([O-])OCC[N+](C)(C)C)NC(=O)CC=CCCCCCCCCCCCCCCCCCCC [SM(41:2)]
collision cross section (N2) ([2]; [M+Na]+): 303.9 Å²

OC[C@H]1O[C@H](O[C@H]2[C@H](O)[C@@H](O)[C@@H](O[C@H]3[C@H](O)[C@@H](O)[C@@H](O[C@H]4[C@H](O)[C@@H](O)C(O)O[C@@H]4CO)O[C@@H]3CO)O[C@@H]2CO)[C@H](O)[C@@H](O)[C@@H]1O (some centres undefined) [Maltotetraose]
collision cross section (N2) ([2]; [M+H]+): 238.3 Å² | collision cross section (N2) ([2]; [M+Na]+): 235.3 Å²

CCCCCCCCCCCCC=CC[C@@H](O)[C@H](CO[C@@H]1O[C@H](CO)[C@@H](O)C(O)C1O)NC(=O)CC=CCCCCCCCCCCCCCCCCCCC (some centres undefined) [GlcCer(41:2)]
collision cross section (N2) ([2]; [M+Na]+): 299.6 Å²

N=C(N)NCCC[C@H](NC(=O)CNC(=O)[C@H](CC(=O)O)NC(=O)[C@@H](N)CO)C(=O)NCC(=O)O [SDGRG]
collision cross section (N2) ([2]; [M+H]+): 204.6 Å² | collision cross section (N2) ([2]; [M+K]+): 205.4 Å² | collision cross section (N2) ([2]; [M+Na]+): 203.5 Å²

CC(C)[C@H](N)C(=O)N[C@@H](CCC(=O)O)C(=O)N[C@@H](CC(=O)O)C(=O)N[C@H](C(=O)N[C@@H](CC(=O)O)C(=O)N[C@@H](CCCNC(=N)N)C(=O)O)C(C)C [VEDVDR]
collision cross section (N2) ([2]; [M+H]+): 256.6 Å²

CCC(C)[C@H](NC(=O)[C@@H](N)CC(=O)O)C(=O)N[C@H](C(=O)NCC(=O)N[C@@H](C)C(=O)N[C@H](C(=O)N[C@@H](CC(C)C)C(=O)N[C@@H](CCCCN)C(=O)O)C(C)C)C(C)C (some centres undefined) [DIVGAVLK]
collision cross section (N2) ([2]; [M+H]+): 291.8 Å² and 277.8 Å²

OCC1OC(OC2C(CO)OC(OC3C(CO)OC(OC4C(CO)OC(O)C(O)C4O)C(O)C3O)C(O)C2O)C(O)C(O)C1O (centres undefined) [(Hex)4]
collision cross section (N2) ([2]; [M+H-H2O]+): 234.7 Å² | collision cross section (N2) ([2]; [M+K]+): 236.6 Å² | collision cross section (N2) ([2]; [M+Na-H2O]+): 234.8 Å²

CCC(C)[C@H](NC(=O)[C@@H](NC(=O)CN)C(C)C)C(=O)N[C@@H](Cc1ccccc1)C(=O)N[C@@H](Cc1ccc(O)cc1)C(=O)N[C@@H](CCC(=O)O)C(=O)N[C@@H](CO)C(=O)N[C@@H](Cc1c[nH]cn1)C(=O)NCC(=O)N[C@@H](CCCCN)C(=O)O (some centres undefined) [GVIFYESHGK]
collision cross section (N2) ([2]; [M+H]+): 332.9 Å²

OCC1OC(OC2C(CO)OC(OC3C(CO)OC(OC4C(CO)OC(OC5C(CO)OC(OC6C(CO)OC(OC7C(CO)OC(OC8C(CO)OC(O)C(O)C8O)C(O)C7O)C(O)C6O)C(O)C5O)C(O)C4O)C(O)C3O)C(O)C2O)C(O)C(O)C1O (centres undefined) [(Hex)8]
collision cross section (N2) ([2]; [M+H-H2O]+): 333.8 Å² | collision cross section (N2) ([2]; [M+Na]+): 320.9 Å² and 338.8 Å²

CCCCCCCCCCCC[N+](CCCCCCCCCCCC)(CCCCCCCCCCCC)CCCCCCCCCCCC [TAA12]
collision cross section (N2) ([2]; [M]+): 319 Å²

CCCC/C=C\CCCCCCCC(=O)OC[C@H](COP(=O)(O)OCCN)OC(=O)CCCCCC/C=C\C/C=C\C/C=C\CCCCC [PE(34:4)]
collision cross section (N2) ([2]; [M+Na]+): 273.6 Å²

CCCCCCCCCCCCC=CC[C@@H](O)[C@H](COP(=O)([O-])OCC[N+](C)(C)C)NC(=O)CC=CCC=CCCCCCCCCCCCCCCCCCC [SM(43:3)]
collision cross section (N2) ([2]; [M+Na]+): 309.6 Å²

CCCCC/C=C\C/C=C\C/C=C\C/C=C\CCCC(=O)O[C@H](COC(=O)CCCC/C=C\C/C=C\C/C=C\CCCCC)COP(=O)(O)OCCN [PE(38:7)]
collision cross section (N2) ([2]; [M+K]+): 287 Å² | collision cross section (N2) ([2]; [M+Na]+): 283.7 Å²

CCCCCCCCCCCCC=CC[C@@H](O)[C@H](COP(=O)([O-])OCC[N+](C)(C)C)NC(=O)CC=CCCCCCCCCCCCCCCCCCCCCC [SM(43:2)]
collision cross section (N2) ([2]; [M+Na]+): 311.5 Å²

CC(C)C[C@H](NC(=O)[C@H](Cc1c[nH]cn1)NC(=O)[C@@H](N)CC(=O)O)C(=O)N[C@H](C(=O)NCC(=O)N[C@@H](CCCNC(=N)N)C(=O)O)C(C)C [DHLVGR]
collision cross section (N2) ([2]; [M+H]+): 249.4 Å²

CCC(C)[C@H](NC(=O)[C@H](CO)NC(=O)[C@H](C)NC(=O)[C@@H](N)CS)C(=O)N[C@@H](CCC(N)=O)C(=O)N[C@@H](CCCCN)C(=O)O (some centres undefined) [CASIQK]
collision cross section (N2) ([2]; [M+H]+): 252.8 Å²
